How the values were obtained:
[1] = test system: Potato callus cell culture; test: Growth of potato callus cell culture (Example XIX); assay type: cell-based, Solanum tuberosum, var. adveria
Protocol: Cell cultures were separately grown in disposable petri dishes.
3. Potato (Solanum tuberosum, var. adveria)
The cultures were grown on the basic medium of mineral salts described by Linsmaier and Skoog (Physiol. Plant, […] (1965)). Vitamins and hormones varied for each tissue (Table X-1) to maintain the tissues in an undifferentiated state. For all of the tissues inositol was 100 mg/liter and agar 1%. Sucrose was 3% for all but the bean which was 2%.
Callus was produced from pith for tobacco, potato and tomato. Bean callus was produced from hypocotyl sections and barley callus from immature ovarian tissue. Subcultures were maintained on the appropriate media.
Stock solutions of triacontanol were prepared at a concentration of 100 μg/ml. The solvent used was glass distilled benzene. The lower concentrations were obtained by serial dilutions. Treatments were applied to 4.5 cm Whatman #1 filter paper disks in 100 μl aliquots. Controls received 100 μl of glass distilled benzene. The solvent was evaporated for approximately 15 minutes and the filter papers were then placed on the agar medium.
Callus tissue was then broken into pieces of approximately the same size (10 mg) and placed in the petri dishes on the treated filter paper (one piece per dish). For experiments conducted in the light the intensity was approximately 2.0 microwatts/cm^2 -namometer. Fresh weight measurements were made after 12 days of growth.

Michigan 396 field corn = test: Single and multiple foliar applications on field corn (Example XII); assay type: in vivo
Text: Tests were run, under the conditions above described, to determine the response of "Michigan 396" field corn and "Larker" barley to single and multiple foliar applications of triacontanol at […]. Plants were one week old at time of first treatment and 25 days old at time or harvest. Table XII states the test results.

[2] = printed 10.0 g triacontanol, 12 days

## CCCCCCCCCCCCCCCCCCCCCCCCCCCCCCO [Triacontanol, 1-triacontanol]
[1]; potato
  growth of in vitro cell cultures: significant increases in growth
[1]; [2]
  % of control: 121 % of control
  Fresh weight: 23.5
Michigan 396 field corn; treated at 7, 12 and 18 days
  Dry wt, Corn: 562 mg/shoot
Michigan 396 field corn; treated at 7 and 12 days
  Dry wt, Corn: 542 mg/shoot
Michigan 396 field corn; treated at 12 and 18 days
  Dry wt, Corn: 614 mg/shoot
Michigan 396 field corn; treated at 7 days
  Dry wt, Corn: 548 mg/shoot
Michigan 396 field corn; treated at 12 days
  Dry wt, Corn: 522 mg/shoot
Michigan 396 field corn; treated at 18 days
  Dry wt, Corn: 486 mg/shoot
